Structures can show the parent of a compound that is named as a salt.
Biological target: T1, human TRPC6 (Homo sapiens, UniProt Q9Y210)
T1 construct: expressed in transfected cells
T1 sequence (Q9Y210 1-931): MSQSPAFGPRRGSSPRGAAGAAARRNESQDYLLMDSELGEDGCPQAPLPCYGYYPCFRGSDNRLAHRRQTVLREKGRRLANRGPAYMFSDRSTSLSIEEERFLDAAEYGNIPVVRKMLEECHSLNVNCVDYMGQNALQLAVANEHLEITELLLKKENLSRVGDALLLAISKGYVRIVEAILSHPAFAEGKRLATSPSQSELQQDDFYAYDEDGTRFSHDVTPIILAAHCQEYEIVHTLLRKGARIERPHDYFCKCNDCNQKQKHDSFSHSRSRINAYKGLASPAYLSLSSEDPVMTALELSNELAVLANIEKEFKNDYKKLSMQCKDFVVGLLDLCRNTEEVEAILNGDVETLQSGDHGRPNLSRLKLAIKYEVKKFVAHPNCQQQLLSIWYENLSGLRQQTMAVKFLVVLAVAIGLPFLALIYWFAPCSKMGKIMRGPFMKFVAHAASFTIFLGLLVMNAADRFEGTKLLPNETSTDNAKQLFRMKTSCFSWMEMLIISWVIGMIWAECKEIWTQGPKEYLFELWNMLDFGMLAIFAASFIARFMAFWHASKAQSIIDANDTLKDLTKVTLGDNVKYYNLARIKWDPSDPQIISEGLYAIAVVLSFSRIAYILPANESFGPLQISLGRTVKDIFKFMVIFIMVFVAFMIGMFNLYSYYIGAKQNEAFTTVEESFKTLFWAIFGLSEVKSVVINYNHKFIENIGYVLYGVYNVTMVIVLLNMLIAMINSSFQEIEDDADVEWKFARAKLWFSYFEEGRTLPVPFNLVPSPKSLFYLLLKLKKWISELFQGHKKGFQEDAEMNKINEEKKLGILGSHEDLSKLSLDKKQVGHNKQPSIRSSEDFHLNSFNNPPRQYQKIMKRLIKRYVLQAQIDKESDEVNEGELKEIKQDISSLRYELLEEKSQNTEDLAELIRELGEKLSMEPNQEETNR
Assay: TRPC6 calcium flux assay (FLIPR, OAG-stimulated calcium influx)
Type: cell-based
Conditions: HEK293 cells stably transfected with human TRPC6, read-out: hTRPC6 Potency
In short: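 IC50 derived by plotting background-corrected peak fluorescence (180 s window, normalized to OAG-triggered signal vs buffer) against dose. Stable human TRPC6 HEK293 line was dye-loaded, exposed to compound 25 min, then challenged with 50 uM final OAG in 2 mM Ca2+ HEPES buffer pH 7.2, 0.5% DMSO.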

First: N#Cc1ccc(Cn2c(N3CC[C@@H](O)[C@H](N)C3)nc3ccccc32)nc1 [Example 95, 6-((2-((3R,4R)-3-amino-4-hydroxypiperidin-1-yl)-1H-benzo[d]imidazol-1-yl)methyl)nicotinonitrile]
Second: N#Cc1ccc(Cn2c(N3CC[C@@H](O)[C@H](N)C3)nc3cc(F)ccc32)nc1 [Example 208, 6-((2-((3R,4R)-3-amino-4-hydroxypiperidin-1-yl)-5-fluoro-1H-benzo[d]imidazol-1-yl)methyl)nicotinonitrile]
The IC50 of the first is higher: greater than 3.75 µM for the first, 0.0477 µM for the second.

Going from Cc1ccc2c(c1)nc(N1CC[C@@H](F)[C@H](N)C1)n2Cc1ccc(C#N)cn1 [Example 110, 6-((2-((3R,4R)-3-amino-4-fluoro-1-piperidinyl)-5-methyl-1H-benzimidazol-1-yl)methyl)-3-pyridinecarbonitrile] to Cc1cc2nc(N3CC[C@@H](F)[C@H](N)C3)n(Cc3ccc(C#N)cn3)c2cc1F [Example 114, 6-((2-((3R,4R)-3-amino-4-fluoro-1-piperidinyl)-6-fluoro-5-methyl-1H-benzimidazol-1-yl)methyl)-3-pyridinecarbonitrile], the IC50 falls from 0.00123 µM to 0.000382 µM (3.2-fold).

Going from N[C@@H]1CN(c2nc3ccc(C(F)(F)F)cc3n2CC(=O)N2CCOCC2)CC[C@@H]1F [Example 464, 2-(2-((3R,4S)-3-amino-4-fluoropiperidin-1-yl)-6-(trifluoromethyl)-1H-benzo[d]imidazol-1-yl)-1-morpholinoethan-1-one] to N[C@@H]1CN(c2nc3cc(C(F)(F)F)ccc3n2CC(=O)N2CCOCC2)CC[C@H]1F [Example 473, 2-(2-((3R,4R)-3-amino-4-fluoropiperidin-1-yl)-5-(trifluoromethyl)-1H-benzo[d]imidazol-1-yl)-1-morpholinoethan-1-one], the IC50 rises from 0.0631 µM to 0.398 µM (6.3-fold).

First: COc1cc(Cl)ccc1Cn1c(N2CC[C@@H](F)[C@H](N)C2)nc2cc(F)c(F)cc21 [Example 350, (3R,4R)-1-(1-(4-chloro-2-methoxybenzyl)-5,6-difluoro-1H-benzimidazol-2-yl)-4-fluoro-3-piperidinamine]
Second: C[C@H](c1ccc(Cl)cn1)n1c(N2CC[C@@H](F)[C@H](N)C2)nc2cc(F)c(F)cc21 [Example 217, (3R,4R)-1-(1-((R)-1-(5-chloropyridin-2-yl)ethyl)-5,6-difluoro-1H-benzo[d]imidazol-2-yl)-4-fluoropiperidin-3-amine hydrochloride]
The IC50 of the first is 5.1-fold higher: 0.351 µM for the first, 0.0687 µM for the second. The second is the more potent here.

Compared with N#Cc1ccc(Cn2c(N3C[C@@H]4C[C@]4(CN)C3)nc3ccccc32)nc1 [Example 75, 6-((2-((1S,5R)-1-(aminomethyl)-3-azabicyclo[3.1.0]hexan-3-yl)-1H-benzo[d]imidazol-1-yl)methyl)nicotinonitrile hydrochloride], N#Cc1ccc(Cn2c(N3CC[C@@H]4CCN[C@@H]4C3)nc3ccccc32)nc1 [Example 24, 6-((2-((3aS,7aS)-hexahydro-1H-pyrrolo[2,3-c]pyridin-6(2H)-yl)-1H-benzo[d]imidazol-1-yl)methyl)nicotinonitrile] is 1.8-fold higher in IC50: 0.0814 µM for the first, 0.145 µM for the second.

Going from COc1ccc(Cn2c(N3CC[C@@H](F)[C@H](N)C3)nc3ccccc32)nc1 [Example 425, (3R,4R)-4-fluoro-1-(1-((5-methoxypyridin-2-yl)methyl)-1H-benzo[d]imidazol-2-yl)piperidin-3-amine] to N#Cc1ccc2nc(N3CC[C@@H](F)[C@H](N)C3)n(Cc3cnc(C#N)cn3)c2c1 [Example 249, 2-((3R,4R)-3-amino-4-fluoro-1-piperidinyl)-1-((5-cyano-2-pyrazinyl)methyl)-1H-benzimidazole-6-carbonitrile], the IC50 falls from 0.113 µM to 0.00765 µM (15-fold).

CN(C)C(=O)Cn1c(N2CC[C@H](F)[C@H](N)C2)nc2ccc(Cl)cc21 [Example 461, 2-(2-((3R,4S)-3-amino-4-fluoropiperidin-1-yl)-6-chloro-1H-benzo[d]imidazol-1-yl)-N,N-dimethylacetamide] and Cc1nnc(Cn2c(N3CC[C@@H](F)[C@H](N)C3)nc3ccc(F)cc32)s1 [Example 561, (3R,4R)-4-fluoro-1-(6-fluoro-1-((5-methyl-1,3,4-thiadiazol-2-yl)methyl)-1H-benzo[d]imidazol-2-yl)piperidin-3-amine] are within 1.5-fold of each other in IC50: 0.0289 µM for the first, 0.0198 µM for the second.

Going from CCN(C(=O)Cn1c(N2CC[C@@H](F)[C@H](N)C2)nc2cc(F)c(F)cc21)C1CCS(=O)(=O)C1 (mixture of isomers) [Example 527, 2-(2-((3R,4R)-3-amino-4-fluoropiperidin-1-yl)-5,6-difluoro-1H-benzo[d]imidazol-1-yl)-N-(1,1-dioxidotetrahydrothiophen-3-yl)-N-ethylacetamide] to CC(C)C1CN(C(=O)Cn2c(N3CC[C@@H](F)[C@H](N)C3)nc3cc(F)c(F)cc32)C1 [Example 429, 2-(2-((3R,4R)-3-amino-4-fluoropiperidin-1-yl)-5,6-difluoro-1H-benzo[d]imidazol-1-yl)-1-(3-isopropylazetidin-1-yl)ethanone], the IC50 rises from 3.01 µM to greater than 3.75 µM.

Compared with N[C@@H]1CN(c2nc3cc(F)ccc3n2Cc2ncc(Cl)cn2)CC[C@H]1F [Example 290, (3R,4R)-1-(1-((5-chloropyrimidin-2-yl)methyl)-5-fluoro-1H-benzo[d]imidazol-2-yl)-4-fluoropiperidin-3-amine], CO[C@@H]1CCN(c2nc3ccc(F)cc3n2Cc2ncc(Cl)cn2)C[C@H]1N (single isomer, unassigned) [Example 456] is 230-fold lower in IC50: 1.97 µM for the first, 0.00844 µM for the second.

Going from CN[C@H]1CCCN(c2nc3ccccc3n2CC(=O)N2CCC2)C1 [Example 266, 1-(1-azetidinyl)-2-(2-((3S)-3-(methylamino)-1-piperidinyl)-1H-benzimidazol-1-yl)ethanone] to N#Cc1ccc(Cn2c(N3CCC[C@H](N)C3)nc3cc(Cl)ccc32)nc1 [Example 2, (S)-6-((2-(3-aminopiperidin-1-yl)-5-chloro-1H-benzo[d]imidazol-1-yl)methyl)nicotinonitrile], the IC50 falls from 15.8 µM to 0.0032 µM (4900-fold).

Compared with N[C@@H]1CN(c2nc3cc(F)c(F)cc3n2Cc2ccc(OC(F)(F)F)cc2)CC[C@H]1F [Example 362, (3R,4R)-1-(5,6-difluoro-1-(4-(trifluoromethoxy)benzyl)-1H-benzimidazol-2-yl)-4-fluoro-3-piperidinamine], N[C@@H]1CN(c2nc3cc(F)c(F)cc3n2Cc2ccc(-n3cncn3)cc2)CC[C@H]1F [Example 339, (3R,4R)-1-(5,6-difluoro-1-(4-(1H-1,2,4-triazol-1-yl)benzyl)-1H-benzimidazol-2-yl)-4-fluoro-3-piperidinamine] is 79-fold lower in IC50: 0.256 µM for the first, 0.00323 µM for the second.

First: Cc1nnc(Cn2c(N3CC[C@@H](F)[C@H](N)C3)nc3cc(F)ccc32)s1 [Example 582, (3R,4R)-4-fluoro-1-(5-fluoro-1-((5-methyl-1,3,4-thiadiazol-2-yl)methyl)-1H-benzo[d]imidazol-2-yl)piperidin-3-amine]
Second: Cc1csc(Cn2c(N3CC[C@@H](F)[C@H](N)C3)nc3cc(F)c(F)cc32)n1 [Example 568, (3R,4R)-1-(5,6-difluoro-1-((4-methylthiazol-2-yl)methyl)-1H-benzo[d]imidazol-2-yl)-4-fluoropiperidin-3-amine]
The IC50 of the first is 7.8-fold higher: 0.376 µM for the first, 0.0481 µM for the second.

Going from N#Cc1ccc(Cn2c(N3CCC[C@H](N)C3)nc3c(Cl)cc(Cl)cc32)nc1 [Example 57, (S)-6-((2-(3-aminopiperidin-1-yl)-4,6-dichloro-1H-benzo[d]imidazol-1-yl)methyl)nicotinonitrile] to N#Cc1ccc(Cn2c(N3CCC[C@H](N)C3)nc3cc(Cl)ccc32)cc1 [Example 422, (S)-4-((2-(3-aminopiperidin-1-yl)-5-chloro-1H-benzo[d]imidazol-1-yl)methyl)benzonitrile], the IC50 rises from 0.000784 µM to 0.00235 µM (3-fold). The first is the more potent here.

First: N[C@@H]1CN(c2nc3c(F)cc(F)cc3n2Cc2ccc(F)cn2)CC[C@H]1F [Example 33, (3R,4R)-1-(4,6-difluoro-1-((5-fluoropyridin-2-yl)methyl)-1H-benzo[d]imidazol-2-yl)-4-fluoropiperidin-3-amine]
Second: CN1CCC(n2c(N3CC[C@@H](F)[C@H](N)C3)nc3cc(F)c(F)cc32)C1=O (mixture of isomers) [Example 238, 3-(2-((3R,4R)-3-amino-4-fluoropiperidin-1-yl)-5,6-difluoro-1H-benzo[d]imidazol-1-yl)-1-methylpyrrolidin-2-one]
The IC50 of the first is 430-fold lower: 0.000432 µM for the first, 0.185 µM for the second.

For COc1ccc2nc(N3CCC[C@H](N)C3)n(Cc3ccc(C#N)cc3)c2n1 [Example 404, (S)-4-((2-(3-aminopiperidin-1-yl)-5-methoxy-3H-imidazo[4,5-b]pyridin-3-yl)methyl)benzonitrile hydrochloride], the IC50 was 0.00167 µM.

Source: patent US11332459B2 (TEIJIN PHARMA LIMITED, priority 2017, dated 2022)
